Experimental data published in patent publication US9040527B2, “Pyrimidinediamine kinase inhibitors” (Rigel Pharmaceuticals, Inc., priority 2008, dated 2015).
Structures can show the parent of a compound that is named as a salt. Where two headings read alike, the source gives them in different places.

Target: PLK1 (Homo sapiens, UniProt P53350)
Test: In vitro PLK1 ELISA assay (biochemical)
Design: purchased Cell Signalling 7728
Experimental: Inhibition of PLK1 was measured by quantifying phosphorylation of PLK1 substrates using chemiluminescent and fluorogenic probes. The protocols for these assays are provided below.
In Vitro PLK1 ELISA Assay
1. Preparation of Assay Plates.
Costar 96-well black or white solid flat high binding plates (Fisher Scientific, Catalog No. 07-200-591) were coated with Neutravidin (Pierce, Catalog No. 31000) using the following protocol. A 0.01 mg/mL solution of Neutravidin in 1× Phosphate Buffered Saline (“PBS”, Cellgro/Mediatech, Catalog No. 21-040-CV) was added to each well (100 μL/well) and was incubated for 18-24 hours at 4° C. The plates were then washed with 1× Phosphate Buffer Saline—Tween (“PBST”, Calbiochem, Catalog No. 524653) buffer using a plate washer. The plates were treated with bovine serum albumin (“BSA”, Sigma, Catalog No. A7906) to block non-specific binding sites, by adding a 2% BSA solution in 1×PBST buffer to each well (100 μL/well) and incubating the plates for 1 hour at room temperature. The plates were then washed with 1×PBST buffer using a plate washer.
2. PLK1-Catalyzed Phosphorylation Reaction
An aqueous buffer solution A having the following composition was prepared:
20 mM HEPES (Cellgro/Mediatech, Catalog No. 25-060Ci), pH 7.2;
5 mM MgCl2 (Sigma, Catalog No. M2393);
2 mM MnCl2.4H2O (EM Biosciences, Catalog No. MX0185-2);
1 mM Dithiothreitol (“DTT”, Fluka, Catalog No. B4184).
Next, the substrate solution B was prepared by adding 2.6 μL of 10 mM ATP (Sigma, Catalog No. A7699) and 6.4 μL of the 1 mM PLK1 substrate, CHK2-derived peptide Biotin-SSLETVSTQELYSIP (custom synthesized at Anaspec) SEQ ID: No. 1, to 4691 μL of the buffer solution A. The concentration of the ATP in solution B is 5.44 μM (1.36×); the concentration of the PLK1 substrate in solution B is 1.36 μM (1.36×).
Compound solutions C of varying concentrations for each compound were prepared by dissolving each compound in dimethylsulfoxide (DMSO, Sigma, Catalog No. D2650) to varying concentrations, followed by adding 2 μL of each solution to 38 μL of the buffer solution A, thereby forming 10× compound solutions in 5% DMSO.
A PLK1 solution D was prepared by adding 8.4 μL of 100 μg/mL PLK1 (Cell Signalling, Catalog No. 7728) to 1392 μL of the buffer solution A, thereby forming 0.6 μg/mL (6×) PLK1 solution.
The aqueous 1.36× substrate solution B was added to each well (44 μL/well) resulting in binding of the substrate to the plate via biotin/neutravidin interaction. Then 10× compound solutions C for each tested compound at each tested concentration were added to each well (6 μL/well). Next, 6×PLK1 solution D was added to each well (10 μL/well).
The final concentrations of tested compounds in each well were 10 μM, 3.3 μM, 1.1 μM, 0.36 μM, 0.12 μM, 0.04 μM, 0.014 μM, and 0.005 μM.
The obtained reaction mixtures were incubated in the wells for 45 minutes at room temperature, allowing PLK1-catalyzed phosphorylation of the substrate to proceed. The plates were then washed with 1×PBST solution using a plate washer, such that the bound phosphorylated or unphosphorylated substrate remains attached to the wells upon washing.
The washed plates were developed by treating the plates with a primary antibody that is specific for the phosphorylated substrate, followed by treatment with a secondary antibody that is specific for the primary antibody, and that is capable of catalyzing a reaction that results in a chemiluminescent readout. The chemiluminescent readout was used to quantify the substrate phosphorylation, and, consequently, to determine IC50 values for PLK1 inhibition, and was measured using a luminometer (Perkin Elmer/Wallac plate reader). The plate development protocol is described below.
A mixed antibody solution E was prepared by adding 1 μL of the primary antibody, rabbit p-CHK2(T68) (Rockland, Catalog No. 401280), and 1 μL of the secondary antibody, HRP-goat anti-rabbit IgG (Jackson Immunoresearch Catalog No. 111-035-003) to 10000 μL of 0.1% BSA in 1×PBST buffer. […]

[1] = ELISA, CHK2-derived peptide substrate, read-out: PLK1 IC50 (μM) biochemical assay
[2] = read-out: IC50 in biochemical in vitro PLK1 ELISA assay (less than 10 μM)
[3] = read-out: IC50 in biochemical ELISA assay (less than 0.01 μM)

Chain of PLK1 (P53350 whole entry): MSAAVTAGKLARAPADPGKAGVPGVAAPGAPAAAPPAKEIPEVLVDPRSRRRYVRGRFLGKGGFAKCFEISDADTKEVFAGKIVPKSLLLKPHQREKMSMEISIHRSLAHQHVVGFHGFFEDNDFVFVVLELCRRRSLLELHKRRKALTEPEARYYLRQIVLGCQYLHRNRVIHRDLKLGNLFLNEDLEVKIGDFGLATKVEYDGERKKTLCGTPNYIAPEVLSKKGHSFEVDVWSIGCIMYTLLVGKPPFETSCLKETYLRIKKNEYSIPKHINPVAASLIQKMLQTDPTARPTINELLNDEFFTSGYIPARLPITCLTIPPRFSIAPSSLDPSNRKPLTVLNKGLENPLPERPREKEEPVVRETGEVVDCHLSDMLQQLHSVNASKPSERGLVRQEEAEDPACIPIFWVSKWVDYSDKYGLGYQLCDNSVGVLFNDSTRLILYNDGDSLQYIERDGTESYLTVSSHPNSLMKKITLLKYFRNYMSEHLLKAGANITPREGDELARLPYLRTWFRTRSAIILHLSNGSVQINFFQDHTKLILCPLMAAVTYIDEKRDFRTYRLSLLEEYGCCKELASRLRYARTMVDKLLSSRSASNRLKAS

| SMILES | IC50 [1] [µM] | IC50 [2] [µM] | IC50 [3] [µM] |
| --- | --- | --- | --- |
| CN1CCN(c2cccc(Nc3ncc(C(=O)O)c(Nc4ccc5c(n4)NCCO5)n3)c2)CC1 [compound 12, 4-(3,4-dihydro-2H-pyrido[3,2-b][1,4]oxazin-6-ylamino)-2-(3-(4-methyl-piperazin-1-yl)phenyl-amino)pyrimidine-5-carboxylic acid] | ≥ 10 |  |  |
| CN1CCN(c2cccc(Nc3ncc(F)c(N(c4ccc5c(n4)NCCO5)C4CCC4)n3)c2)CC1 [compound 15, N4-cyclobutyl-N4-(3,4-dihydro-2H-pyrido[3,2-b][1,4]oxazin-6-yl)-5-fluoro-N2-(3-(4-methylpiperazin-1-yl)phenyl)pyrimidine-2,4-diamine] | 0.5 to 5 | < 10 |  |
| CN1CCN(c2cc(Nc3ncc(F)c(Nc4ccc5c(n4)NCCO5)n3)cc(OCC3CCC3)c2)CC1 [compound 16, N2-(3-(cyclobutylmethoxy)-5-(4-methylpiperazin-1-yl)phenyl)-N4-(3,4-dihydro-2H-pyrido[3,2-b][1,4]oxazin-6-yl)-5-fluoropyrimidine-2,4-diamine] | < 0.5 | < 10 |  |
| CC(C)c1cc(Nc2ncc(F)c(Nc3ccc4c(n3)NCCO4)n2)ccc1N1CC2CC1CN2C (stereo not drawn) [compound 10, N4-(3,4-dihydro-2H-pyrido[3,2-b][1,4]oxazin-6-yl)-5-fluoro-N2-(3-isopropyl-4-(5-methyl-2,5-diazabicyclo[2.2.1]heptan-2-yl)phenyl)pyrimidine-2,4-diamine] | ≥ 10 |  |  |
| CN1CC2CC1CN2c1ccc(Nc2ncc(F)c(Nc3ccc4c(n3)NCCO4)n2)cc1C(F)(F)F (stereo not drawn) [compound 57, N4-(3,4-dihydro-2H-pyrido[3,2-b][1,4]oxazin-6-yl)-5-fluoro-N2-(4-(5-methyl-2,5-diazabicyclo[2.2.1]heptan-2-yl)-3-(trifluoro-methyl)phenyl)pyrimidine-2,4-diamine] | ≥ 10 |  |  |
| CN1CCN(c2cccc(Nc3ncc(F)c(N(CC4CCCCC4)c4ccc5c(n4)NCCO5)n3)c2)CC1 [compound 7, N4-(cyclohexylmethyl)-N4-(3,4-dihydro-2H-pyrido[3,2-b][1,4]oxazin-6-yl)-5-fluoro-N2-(3-(4-methylpiperazin-1-yl)phenyl)pyrimidine-2,4-diamine] | ≥ 10 |  |  |
| COc1cc(Nc2ncc(F)c(Nc3ccc4c(n3)NCCO4)n2)cc(N2CCN(C)CC2)c1 [compound 5, N4-(3,4-dihydro-2H-pyrido[3,2-b][1,4]oxazin-6-yl)-5-fluoro-N2-(3-methoxy-5-(4-methylpiperazin-1-yl)phenyl)pyrimidine-2,4-diamine] | < 0.5 | < 10 | < 0.01 |
| CN1CCN(c2cccc(Nc3ncc(F)c(Nc4ccc5c(n4)NC(=O)CO5)n3)c2)CC1 [compound 19, 6-(5-fluoro-2-(3-(4-methylpiperazin-1-yl)phenylamino)pyrimidin-4-ylamino)-2H-pyrido[3,2-b][1,4]oxazin-3(4H)-one hydrochloride] |  |  | < 0.01 |
| CN1CCN(c2cccc(Nc3ncc(F)c(N(c4ccc5c(n4)NCCO5)C4CCCCC4)n3)c2)CC1 [compound 9, N4-cyclohexyl-N4-(3,4-dihydro-2H-pyrido[3,2-b][1,4]oxazin-6-yl)-5-fluoro-N2-(3-(4-methylpiperazin-1-yl)phenyl)pyrimidine-2,4-diamine] | ≥ 10 |  |  |
| CN1CCN(c2cccc(Nc3ncc(F)c(Nc4ccc5c(n4)NCCO5)n3)c2)CC1 [compound 168, N4-(3,4-dihydro-2H-pyrido[3,2-b][1,4]oxazin-6-yl)-5-fluoro-N2-(3-(4-methylpiperazin-1-yl)phenyl)pyrimidine-2,4-diamine p-toluene sulfonic acid salt] |  |  | < 0.01 |
| CC(C)c1cc(Nc2ncc(F)c(Nc3ccc4c(n3)NC(=O)CO4)n2)ccc1N1CC2CC1CN2C (stereo not drawn) [compound 8, 6-(5-fluoro-2-(3-isopropyl-4-(5-methyl-2,5-diazabicyclo[2.2.1]heptan-2-yl)phenylamino)pyrimidin-4-ylamino)-2H-pyrido[3,2-b][1,4]oxazin-3(4H)-one] | ≥ 10 |  |  |
| COc1cc(Nc2ncc(F)c(Nc3ccc4c(n3)NC(=O)CO4)n2)cc(N2CCN(C)CC2)c1 [compound 3, 6-(5-fluoro-2-(3-methoxy-5-(4-methylpiperazin-1-yl)phenylamino)pyrimidin-4-ylamino)-2H-pyrido[3,2-b][1,4]oxazin-3(4H)-one] | < 0.5 | < 10 |  |
| CN1CCN(c2cc(Nc3ncc(F)c(Nc4ccc5c(n4)NC(=O)CO5)n3)cc(OCC3CCC3)c2)CC1 [compound 14, 6-(2-(3-(cyclobutylmethoxy)-5-(4-methylpiperazin-1-yl)phenylamino)-5-fluoropyrimidin-4-ylamino)-2H-pyrido[3,2-b][1,4]oxazin-3(4H)-one] | ≥ 10 |  |  |
| CN1CCN(c2cccc(Nc3ncc(F)c(N(CC4CCC4)c4ccc5c(n4)NCCO5)n3)c2)CC1 [compound 4, N4-(cyclobutylmethyl)-N4-(3,4-dihydro-2H-pyrido[3,2-b][1,4]oxazin-6-yl)-5-fluoro-N2-(3-(4-methylpiperazin-1-yl)phenyl)pyrimidine-2,4-diamine] | 5 to 10 | < 10 |  |
| CN1CCN(c2cccc(Nc3ncc(C(F)(F)F)c(Nc4ccc5c(n4)NC(=O)CO5)n3)c2)CC1 [compound 6, 6-(2-(3-(4-methylpiperazin-1-yl)phenylamino)-5-(trifluoro-methyl)pyrimidin-4-ylamino)-2H-pyrido[3,2-b][1,4]oxazin-3(4H)-one] | < 0.5 | < 10 | < 0.01 |
| CN1CCN(c2cccc(Nc3nccc(Nc4ccc5c(n4)NC(=O)CO5)n3)c2)CC1 [compound 13, 6-(2-(3-(4-methylpiperazin-1-yl)phenylamino)pyrimidin-4-ylamino)-2H-pyrido[3,2-b][1,4]oxazin-3(4H)-one] | ≥ 10 |  |  |
| Cc1cc(Nc2ncc(F)c(Nc3ccc4c(n3)N(CC3CC3)C(=O)CO4)n2)ccc1N1CCN(C)CC1 [compound 111, 4-(cyclopropylmethyl)-6-(5-fluoro-2-(3-methyl-4-(4-methylpiperazin-1-yl)phenylamino)pyrimidin-4-ylamino)-2H-pyrido[3,2-b][1,4]oxazin-3(4H)-one] | 0.5 to 5 | < 10 |  |
| COC(=O)c1cnc(Nc2cccc(N3CCN(C)CC3)c2)nc1Nc1ccc2c(n1)NCCO2 [compound 11, methyl 4-(3,4-dihydro-2H-pyrido[3,2-b][1,4]oxazin-6-ylamino)-2-(3-(4-methylpiperazin-1-yl)phenylamino)pyrimidine-5-carboxylate] | ≥ 10 |  |  |
